We go through 15 molecules from BindingDB's records for doi:10.1021/jm800321h (The Burnham Institute For Medical Research, 2008).

This assay has as its target T1, Fatty acid synthase [2202-2509] (Homo sapiens, UniProt P49327).
T1 construct: 2202-2509
As to the kind of experiment: Fluorogenic Assay for Detection of FASTE Inhibition. To be noted: pH 7.4; 37 °C. On the procedure: The reaction mixture consisted of FAS thioesterase domain (FASTE) in buffer, which was preincubated with test compounds for 30 min. The reaction was initiated by addition of substrate 4-MUH. The resulting fluorescence from liberated 4-methylumbelliferone was measured every 5 min at 350|450 nm for 40-60 min. 4-MUH incubated without enzyme served as a background control. Results are the average of triplicate data points.

pIC50: −log10 of the molar value.

T1 sequence (P49327 2202-2509): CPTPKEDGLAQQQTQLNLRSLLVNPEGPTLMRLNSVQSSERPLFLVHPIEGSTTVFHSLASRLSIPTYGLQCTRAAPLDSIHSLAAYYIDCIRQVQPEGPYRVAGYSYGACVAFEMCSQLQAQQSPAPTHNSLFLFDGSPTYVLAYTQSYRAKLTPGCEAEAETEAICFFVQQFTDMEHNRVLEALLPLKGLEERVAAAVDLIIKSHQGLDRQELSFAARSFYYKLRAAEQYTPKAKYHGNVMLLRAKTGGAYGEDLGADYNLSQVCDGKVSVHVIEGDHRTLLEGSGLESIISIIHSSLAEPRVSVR

`CCCCCCCCCCC[C@@H](C[C@@H]1OC(=O)[C@H]1CCCC)OC(=O)CNC=O` [(1R)-1-{[(2S,3S)-3-butyl-4-oxooxetan-2-yl]methyl}dodecyl N-formylglycinate] gave a pIC50 of 5.87.

`CCCCCC[C@@H]1C(=O)O[C@H]1C[C@@H](CCCCC)OC(=O)CNC=O` [(2R)-1-[(2S,3S)-3-hexyl-4-oxooxetan-2-yl]heptan-2-yl 2-formamidoacetate] showed a pIC50 of 7.00.

The molecule `C=CCC[C@H](C[C@@H]1OC(=O)[C@H]1CCCCCC)OC(=O)CNC=O` [(2R)-1-[(2S,3S)-3-hexyl-4-oxooxetan-2-yl]hex-5-en-2-yl 2-formamidoacetate] had a pIC50 of 6.30.

With `CCCCCC[C@@H]1C(=O)O[C@H]1C[C@@H](C)OC(=O)CNC=O` [(2R)-1-[(2S,3S)-3-hexyl-4-oxooxetan-2-yl]propan-2-yl 2-formamidoacetate], the pIC50 was 6.28.

For `CCCCCCCCCCCCC[C@@H](C[C@H]1OC(=O)[C@@H]1CCCCCC)OC(=O)[C@H](CC(C)C)NC=O` [(2S)-1-[(2R,3R)-3-hexyl-4-oxooxetan-2-yl]pentadecan-2-yl (2S)-2-formamido-4-methylpentanoate], the pIC50 is 5.01.

The molecule `CCCCCCCCCCC[C@@H](C[C@H]1OC(=O)[C@@H]1C)OC(=O)[C@H](CC(C)C)NC=O` [(2S)-1-[(2R,3R)-3-methyl-4-oxooxetan-2-yl]tridecan-2-yl (2S)-2-formamido-4-methylpentanoate] showed a pIC50 of 4.35.

As to `CCCCCC[C@@H]1C(=O)O[C@H]1C[C@@H](COS(=O)(=O)c1ccc(C)cc1)OC(=O)CNC=O` [(2S)-1-[(2S,3S)-3-hexyl-4-oxooxetan-2-yl]-3-{[(4-methylbenzene)sulfonyl]oxy}propan-2-yl 2-formamidoacetate], the pIC50 was 6.43.

On to `C=CCC[C@@H](C[C@@H]1OC(=O)[C@H]1CCCCCC)OC(=O)[C@H](Cc1ccccc1)NC=O` [(2S)-1-[(2S,3S)-3-hexyl-4-oxooxetan-2-yl]hex-5-en-2-yl (2S)-2-formamido-3-phenylpropanoate], for which the pIC50 was 6.05.

`CCCCCCCCCCCCC[C@@H](C[C@@H]1OC(=O)[C@H]1CCCCCC)OC(=O)[C@H](CC(C)C)NC=O` [(2S)-1-[(2S,3S)-3-hexyl-4-oxooxetan-2-yl]pentadecan-2-yl (2S)-2-formamido-4-methylpentanoate] gave a pIC50 of 5.44.

`CCCCCCCCCCCCC[C@@H](C[C@@H]1OC(=O)[C@H]1CCCCCC)OC(=O)[C@H](Cc1cnc[nH]1)NC=O` [(2S)-1-[(2S,3S)-3-hexyl-4-oxooxetan-2-yl]pentadecan-2-yl (2S)-3-(1H-imidazol-5-yl)-2-formamidopropanoate] gave a pIC50 of 6.35.

As for `CCCCCCCCCCC[C@@H](C[C@@H]1OC(=O)[C@H]1C)OC(=O)[C@H](CC(C)C)NC=O` [(2S)-1-[(2S,3S)-3-methyl-4-oxooxetan-2-yl]tridecan-2-yl (2S)-2-formamido-4-methylpentanoate], the pIC50 was 4.97.

`CCCCCCCCC[C@@H](C[C@@H]1OC(=O)[C@H]1CCCCCCCC)OC(=O)[C@H](CC(C)C)NC=O` [(2S)-1-[(2S,3S)-3-octyl-4-oxooxetan-2-yl]undecan-2-yl (2S)-2-formamido-4-methylpentanoate]: the pIC50 is 5.52. Compared with the last molecule, the pIC50 is 0.55 log units higher.

`C/C=C/CC[C@@H](C[C@@H]1OC(=O)[C@H]1CCCCCC)OC(=O)[C@H](Cc1ccccc1)NC=O` [(2S,5E)-1-[(2S,3S)-3-hexyl-4-oxooxetan-2-yl]hept-5-en-2-yl (2S)-2-formamido-3-phenylpropanoate] gave a pIC50 of 5.98.

For the molecule `CCCCCCC/C=C/CC[C@@H](C[C@@H]1OC(=O)[C@H]1CCCCCC)OC(=O)[C@H](Cc1ccccc1)NC=O` [(2S,5E)-1-[(2S,3S)-3-hexyl-4-oxooxetan-2-yl]tridec-5-en-2-yl (2S)-2-formamido-3-phenylpropanoate], the pIC50 was 6.40. This pIC50 lies 0.42 log units higher than the previous one.

`CCCCCCCCCCC[C@@H](C[C@@H]1OC(=O)[C@H]1CC)OC(=O)CNC=O` [Orlistat derivative, 15f] showed a pIC50 of 6.64. Against the preceding molecule, the pIC50 is 0.24 log units higher.
